# Reference: patent US5668134A, “Method for preventing or reducing photosensitivity and/or phototoxicity reactions to medications” (priority 1994, dated 1997)
# Values joined by “and” are separate entries in the source; they are usually repeats but may differ in a detail not shown here. Equal entries are not always repeated. Structures can show the parent of a compound that is named as a salt.
# What was measured:
# [1] = tested on: skin of healthy volunteers; experiment: Example 5: Minimum Erythema Dose with UVA radiation, morning vs evening dosing; format: in vivo, human; settings: mean, UVA, p.m. dosing
# Description: (§1) This study describes a randomized, single site, double-blind, two treatment, two period, two sequence, cross-over clinical pharmacology study which was performed according to FDA regulations in 27 healthy normal volunteers with fair skin that could easily burn when exposed to sunlight, to assess the photosensitivity and/or phototoxicity potential of oral 400 mg lomefloxacin hydrochloride (MAXAQUIN®) administered once daily for 4 consecutive days either in the morning (morning dose group), as described hereinbelow, or in the early evening (evening dose group), as described hereinbelow. Irradiation and evaluation of irradiated sites began at 2 hours after the final morning dose of lomefloxacin HCl for the morning dosing group, and began 16 hours after the final evening dose of lomefloxacin HCl for the evening dosing group.
# (§2) "Baseline MED" was defined as the lowest dose of UVA radiation alone, or UVA and UVB radiation, that produced a minimal perceptible erythema filling a 1 cm^2 patch of skin 24 hours post radiation.
# (§3) "Delayed MED" was defined as the lowest dose of UVA radiation alone, or UVA and UVB radiation, that produced a minimal perceptible erythema filling a 1 cm^2 patch of skin, when testing the area 24, 48 and 72 hours post radiation.
# (§4) "Immediate MED" was defined as the lowest dose producing minimal perceptible erythema filling a 1 cm^2 patch of skin when testing the area 0, 3, and 6 hours post radiation.
# (§5) After all baseline procedures, including determination of baseline MEDUVA and MEDUVA+UVB values 24 hours post-radiation, were completed, all subjects started Study Day 1 of Treatment Period 1 with an evening dose of study medication, and completed this phase of the treatment regime with a morning dose of study medication on Study Day 5. Two hours after the final morning dose, and 16 hours after the last evening dose, a randomly selected site composed of six patches of skin, each with an area of one square centimeter, on the back or buttock of the subject was irradiated with incremental amounts of energy. Immediately following irradiation (0 hour), and at 3, 6, 24, 48 and 72 hours following irradiation, each skin patch area was evaluated to determine the MEDs, and assess the severity of skin reaction using a five-grade system, as described hereinbelow. The lowest of the MEDs determined at 0, 3 and 6 hours post-radiation were referred to as immediate MEDs, and the lowest of the MEDs determined at 24, 48 and 72 hours post-radiation were referred to as delayed MEDs.
# (§6) The source of radiation employed was an Oriel (Santa Monica, Calif.) Xenon Arc 1000 watt solar simulator, with the following filters: WG320 filter (1 mm thick, emitting full spectrum UVA and UVB radiation), WG335 filter (3 mm thick, emitting almost exclusively UVA radiation) or UG11 filter (to filter infrared radiation).
# (§7) For predrug exposure MED determination, 2 sets each with six 1 cm^2 patches on the back or buttocks were irradiated with increasing doses of UVA and UVB radiation, and UVA radiation alone, up to 7 days prior to beginning of drug treatment. With respect to UVA light source, irradiation began at 5 J/cm^2, and was increased by increments of 5 J/cm^2 using a different skin patch for each exposure. The maximum radiation dose was 30 J/cm^2. Subjects with MED greater than 30 J/cm^2 were excluded from the study. […] A different skin patch was used for each exposure.
# (§8) Two hours after the administration of the last dose of Treatment Period 1 (a.m. dose), the two randomly selected sites on each subject's back or buttocks were exposed one to UVA and UVB radiation, and one to UVA radiation alone. In order to protect the subjects from excessive radiation, as well as assess the true Minimum Erythema Dose (MED), the posttreatment irradiation doses for each subject was adjusted in accordance with their pretreatment MEDs. The following table was used to determine each subject's minimum and maximum posttreatment radiation dose: […]
# [2] = Example 5: lomefloxacin plasma concentrations; settings: for concentration at 14 h: Hour 14, mean; for plasma concentration, Hour 86: 72 hours following last active dose
# [3] = tested on: skin of healthy volunteers; settings: in vivo
# Description: The number of skin patches with edema, or local swelling of the skin surface, were also counted. MEDs were measured separately for UVA and UVB radiation, and for UVA radiation alone. The baseline MED was defined in the manner described hereinabove. The 24 hour evaluation was allowed to be performed in the morning of Study Day 1. Severity of reactions causing edema and/or blisters were graded under the following grading system:
# Severity was assessed by comparing the numbers of subjects with responses graded as 2 (edema) or 3 (blisters).
# [4] = tested on: skin of healthy volunteers; design: species or system human; settings: in vivo
# Description: as §1, §2, §3, §4, §5, §6, §7, §8
# [5] = human, plasma, mean, a.m. dosing
# [6] = human, plasma, mean, p.m. dosing
smiles,measurement,setting,value
"CCn1cc(C(=O)O)c(=O)c2cc(F)c(N3CCNC(C)C3)c(F)c21 (racemic) [lomefloxacin HCl, monohydrochloride salt of (±)-1-ethyl-6,8-difluoro-1,4-dihydro-7-(3-methyl-1-piperazinyl)-4-oxo-3-quinolinecarboxylic acid]","MED, 24 H, mean",[1]; 24 H,28.333 J/cm^2
same,"MED, 48 H, mean",[1]; 48 H,28.182 J/cm^2
same,"MED, 72 H, mean",[1]; 72 H,28.500 J/cm^2
same,"CHANGE BASELINE, delayed MED, mean",[1]; p=1.000,0.000 J/cm^2
same,AUC,[2]; [5],47000 ng·h/mL
same,AUC,[2]; [6],40000 ng·h/mL
same,Cmax,[2]; [5],3000 ng/mL
same,Cmax,[2]; [6],2900 ng/mL
same,Tmax,"[2]; human, plasma, Tmax, mean, a.m. dosing, sample hour scale",14.9 h
same,Tmax,"[2]; human, plasma, Tmax, mean, p.m. dosing",2.9 h
same,concentration at 2 h,"[2]; human, plasma, plasma concentration, Hour 2, mean, mean, a.m. dosing, 12 hours prior to last active dose",1100 ng/mL
same,concentration at 2 h,"[2]; human, plasma, plasma concentration, Hour 2, mean, mean, p.m. dosing, 2 hours following last active dose",2900 ng/mL
same,concentration at 14 h,"[2]; human, plasma, plasma concentration, mean, a.m. dosing, immediately prior to last active dose",300 ng/mL
same,concentration at 14 h,"[2]; human, plasma, plasma concentration, mean, p.m. dosing, 14 hours following last active dose",1000 ng/mL
same,concentration at 2 h,"[2]; human, plasma, plasma concentration, Hour 16, individual subjects, a.m. dosing, 2 hours following last active dose",2920 ng/mL
same,concentration at 2 h,"[2]; human, plasma, plasma concentration, Hour 16, mean, mean, a.m. dosing, 2 hours following last active dose",3100 ng/mL
same,concentration at 16 h,"[2]; human, plasma, plasma concentration, Hour 16, mean, mean, p.m. dosing, 16 hours following last active dose",800 ng/mL
same,concentration at 5 h,"[2]; human, plasma, plasma concentration, Hour 19, individual subjects, a.m. dosing, 5 hours following last active dose",1850 ng/mL
same,concentration at 5 h,"[2]; human, plasma, plasma concentration, Hour 19, mean, mean, a.m. dosing, 5 hours following last active dose",2200 ng/mL
same,concentration at 19 h,"[2]; human, plasma, plasma concentration, Hour 19, mean, mean, p.m. dosing, 19 hours following last active dose",600 ng/mL
same,concentration at 24 h,"[2]; human, plasma, plasma concentration, Hour 38, mean, mean, a.m. dosing, 24 hours following last active dose",300 ng/mL
same,concentration at 38 h,"[2]; human, plasma, plasma concentration, Hour 38, mean, mean, p.m. dosing, 38 hours following last active dose",100 ng/mL
same,"plasma concentration, Hour 16","[2]; individual subjects, a.m. dosing, 2 hours following last active dose, 120 min",2420 ng/mL and 3160 ng/mL and 3730 ng/mL and 3000 ng/mL and 3660 ng/mL and 2650 ng/mL and 2840 ng/mL and 2950 ng/mL and 3050 ng/mL and 2940 ng/mL and 4040 ng/mL and 2580 ng/mL
same,"plasma concentration, Hour 19","[2]; individual subjects, a.m. dosing, 5 hours following last active dose, 300 min",1710 ng/mL and 1810 ng/mL and 2370 ng/mL and 2360 ng/mL and 2280 ng/mL and 1780 ng/mL and 2060 ng/mL and 1750 ng/mL and 1720 ng/mL and 2880 ng/mL and 3060 ng/mL and 2390 ng/mL
same,"plasma concentration, Hour 2","[2]; individual subjects, a.m. dosing, 12 hours prior to last active dose, 120 min",786 ng/mL and 1030 ng/mL and 889 ng/mL and 1460 ng/mL and 1360 ng/mL and 711 ng/mL and 1090 ng/mL and 840 ng/mL and 915 ng/mL and 1200 ng/mL and 1280 ng/mL and 1110 ng/mL and 1500 ng/mL
same,"plasma concentration, Hour 0","[2]; individual subjects, a.m. dosing, 14 hours prior to last active dose",1160 ng/mL and 1060 ng/mL and 1540 ng/mL and 1520 ng/mL and 1350 ng/mL and 901 ng/mL and 1370 ng/mL and 1080 ng/mL and 1180 ng/mL and 1720 ng/mL and 1360 ng/mL and 1800 ng/mL
same,"plasma concentration, Hour 38","[2]; individual subjects, a.m. dosing, 24 hours following last active dose, 1440 min",230 ng/mL and 318 ng/mL and 281 ng/mL and 346 ng/mL and 467 ng/mL and 319 ng/mL and 251 ng/mL and 361 ng/mL and 201 ng/mL and 157 ng/mL and 258 ng/mL and 263 ng/mL and 367 ng/mL
same,"plasma concentration, Hour 62","[2]; individual subjects, a.m. dosing, 48 hours following last active dose, 2880 min",39 ng/mL and 64 ng/mL and 27 ng/mL and 54 ng/mL and 73 ng/mL and 35 ng/mL and 53 ng/mL and 21 ng/mL and 16 ng/mL and 36 ng/mL
same,"plasma concentration, Hour 86","[2]; individual subjects, a.m. dosing",0 ng/mL
same,"plasma concentration, Hour 86","[2]; individual subjects, a.m. dosing, 4320 min",11 ng/mL and 16 ng/mL and 6 ng/mL and 13 ng/mL and 19 ng/mL and 7 ng/mL and 9 ng/mL and 17 ng/mL
same,"plasma concentration, Hour 14","[2]; individual subjects, a.m. dosing, immediately prior to last active dose, 840 min",271 ng/mL and 368 ng/mL and 243 ng/mL and 385 ng/mL and 479 ng/mL and 297 ng/mL and 210 ng/mL and 350 ng/mL and 204 ng/mL and 279 ng/mL and 317 ng/mL and 283 ng/mL and 419 ng/mL
same,Tmax,"[2]; individual subjects, a.m. dosing, sample hour scale",16 h and 0 h
same,Tmax,"[2]; individual subjects, p.m. dosing",14 h
same,"plasma concentration, Hour 0, mean","[2]; mean, a.m. dosing, 14 hours prior to last active dose",1300 ng/mL
same,severity of UVA+UVB radiation-induced photoreactions versus baseline,[3],no change
same,"subjects with edema or blisters on the sites of radiation, UVA",[3],sixty-nine
same,"MED, 0 H, mean",[4],0.094 J/cm^2
same,amount of UVA+UVB radiation to give MED versus UVA alone,[4],over 100 times less
same,change of immediate MEDUVA+UVB from baseline,[4],not statistically significant
same,change of immediate and delayed MEDUVA+UVB from baseline,[4],"neither the changes between baseline and posttreatment immediate MEDUVA+UVB, nor between baseline and posttreatment delayed MEDUVA+UVB, were statistically significant"
same,"change of immediate and delayed MEDUVA+UVB, a.m. versus p.m.",[4],statistically significant difference
same,photosensitivity with UVA plus UVB radiation,[4],no increase in photosensitivity
